Where two headings read alike, the source gives them in different places.
Experiments:
[1] = Log Po:w (octanol-water partition coefficient); format: physicochemical
From the text: (§1) TABLE 1 Model development and model parameters. | column: Value

[2] = tested on: imatinib-resistant and imatinib-sensitive gastrointestinal stromal tumor cell lines; parameters: method as in Liu et al., 2019; conditions: imatinib-resistant and imatinib-sensitive GIST cell lines; ref Liu et al., 2019; cited from earlier work
[3] = pKa; format: physicochemical
From the text: as §1

[4] = tested on: CYP2C9
[5] = target: CYP2C9 (Homo sapiens, UniProt P11712); test: CYP2C9 inhibition in human liver microsomes (diclofenac probe)
Protocol: Ki=IC50/1+S/Km (1) Where IC50 signifies the half-maximum inhibitory concentration; S, the concentration of P450 marker substrate; and K m , the Michaelis constant within the Michaelis-Menten equation, which is in turn used to characterize substrate-enzyme binding kinetics.
The Michaelis constant (K m ) of CYP2C9 incubated with diclofenac was obtained from reported data ([Lee et al., 2014]). Methods used to calculate the Ki of CYP2C19 and CYP2C9 were similar.

[6] = In vitro Caco-2 cell permeability; format: in vitro ADME; conditions: human
From the text: (§2) The first-order absorption model has different absorption rate constants (ka) and fraction available from dosage form (fa) to simulate absorption processes in fasting and fed states. […] Caco-2 (human colorectal adenocarcinoma) cells are used to model the intestinal epithelial barrier. The Simcyp (Version 19.0, Certara Inc., Sheffield, UK) minimal PBPK, which treats all organs other than the intestine and liver as a single compartment ([Rowland Yeo et al., 2010]), was selected, along with a single adjusting compartment (SAC) distribution model. The SAC is a nonphysiologic compartment that permits adjustment to the drug concentration profile in the systemic compartment ([Ke et al., 2016]).

[7] = target: MATE2K (Homo sapiens, UniProt Q86VL8); test: Transporter substrate/inhibitor assessment, MATE2K; format: in vitro ADME
[8] = Phase 1 dose escalation study (renal clearance); conditions: human, in vivo; 12 Chinese patients, 50 mg oral on Day 1
[9] = target: P-gp (Homo sapiens, UniProt P08183); test: P-gp substrate and in vivo inhibition assessment
From the text: (§3) The effects of transporters expressed on the gut and liver have not been investigated.

[10] = PBPK model parameters optimized or assumed (Simcyp minimal PBPK); parameters: species or system human
From the text: as §2

[11] = target: T1, BCRP (breast cancer resistance protein) (Homo sapiens, UniProt Q9UNQ0); test: BCRP substrate and in vivo inhibition assessment
T1 sequence (Q9UNQ0 1-655): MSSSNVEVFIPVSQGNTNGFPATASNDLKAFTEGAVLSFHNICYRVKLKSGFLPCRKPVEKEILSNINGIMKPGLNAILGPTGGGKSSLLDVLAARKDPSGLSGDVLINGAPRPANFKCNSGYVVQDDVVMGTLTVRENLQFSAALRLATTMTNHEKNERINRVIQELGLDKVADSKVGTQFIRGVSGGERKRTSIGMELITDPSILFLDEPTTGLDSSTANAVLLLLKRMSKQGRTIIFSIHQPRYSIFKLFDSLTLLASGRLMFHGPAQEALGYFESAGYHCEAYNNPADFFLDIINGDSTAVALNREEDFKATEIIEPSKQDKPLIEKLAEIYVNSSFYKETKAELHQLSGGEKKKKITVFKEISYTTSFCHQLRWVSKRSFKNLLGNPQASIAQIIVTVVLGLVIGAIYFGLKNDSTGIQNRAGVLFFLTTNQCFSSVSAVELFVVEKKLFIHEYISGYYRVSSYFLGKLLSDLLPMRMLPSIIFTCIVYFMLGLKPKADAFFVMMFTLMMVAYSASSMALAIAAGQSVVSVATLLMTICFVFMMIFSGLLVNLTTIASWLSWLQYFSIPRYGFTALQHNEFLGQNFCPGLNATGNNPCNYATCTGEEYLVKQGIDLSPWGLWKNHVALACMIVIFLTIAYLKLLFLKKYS
From the text: as §3

[12] = tested on: T315I-mutated CML; conditions: 40 mg QOD, 28-day cycles over 24 months, ref Jiang et al., 2022, cited from earlier work
[13] = target: CYP3A4 (Homo sapiens, UniProt P08684); conditions: recombinant enzyme
[14] = target: T2, OAT3 (Homo sapiens, UniProt Q8TCC7); test: Transporter substrate/inhibitor assessment, OAT3; format: in vitro ADME
T2 sequence (Q8TCC7 1-542): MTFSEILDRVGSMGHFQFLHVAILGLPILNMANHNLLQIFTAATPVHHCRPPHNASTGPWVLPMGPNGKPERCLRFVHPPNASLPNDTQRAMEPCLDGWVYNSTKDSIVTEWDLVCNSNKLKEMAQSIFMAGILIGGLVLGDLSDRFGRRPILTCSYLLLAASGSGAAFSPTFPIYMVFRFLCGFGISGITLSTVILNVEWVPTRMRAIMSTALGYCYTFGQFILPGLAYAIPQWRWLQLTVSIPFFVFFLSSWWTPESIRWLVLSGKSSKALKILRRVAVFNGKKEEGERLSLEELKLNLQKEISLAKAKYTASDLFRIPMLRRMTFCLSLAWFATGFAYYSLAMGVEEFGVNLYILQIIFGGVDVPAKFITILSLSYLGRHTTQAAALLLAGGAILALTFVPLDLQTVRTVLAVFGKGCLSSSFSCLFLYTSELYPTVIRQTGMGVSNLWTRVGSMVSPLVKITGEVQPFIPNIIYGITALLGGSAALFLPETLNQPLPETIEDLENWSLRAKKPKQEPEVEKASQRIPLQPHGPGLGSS

[15] = Fasting, optimized based on observed data
[16] = Fed, optimized based on observed data
[17] = optimized based on observed data

Sequence of P-gp (P08183 whole entry): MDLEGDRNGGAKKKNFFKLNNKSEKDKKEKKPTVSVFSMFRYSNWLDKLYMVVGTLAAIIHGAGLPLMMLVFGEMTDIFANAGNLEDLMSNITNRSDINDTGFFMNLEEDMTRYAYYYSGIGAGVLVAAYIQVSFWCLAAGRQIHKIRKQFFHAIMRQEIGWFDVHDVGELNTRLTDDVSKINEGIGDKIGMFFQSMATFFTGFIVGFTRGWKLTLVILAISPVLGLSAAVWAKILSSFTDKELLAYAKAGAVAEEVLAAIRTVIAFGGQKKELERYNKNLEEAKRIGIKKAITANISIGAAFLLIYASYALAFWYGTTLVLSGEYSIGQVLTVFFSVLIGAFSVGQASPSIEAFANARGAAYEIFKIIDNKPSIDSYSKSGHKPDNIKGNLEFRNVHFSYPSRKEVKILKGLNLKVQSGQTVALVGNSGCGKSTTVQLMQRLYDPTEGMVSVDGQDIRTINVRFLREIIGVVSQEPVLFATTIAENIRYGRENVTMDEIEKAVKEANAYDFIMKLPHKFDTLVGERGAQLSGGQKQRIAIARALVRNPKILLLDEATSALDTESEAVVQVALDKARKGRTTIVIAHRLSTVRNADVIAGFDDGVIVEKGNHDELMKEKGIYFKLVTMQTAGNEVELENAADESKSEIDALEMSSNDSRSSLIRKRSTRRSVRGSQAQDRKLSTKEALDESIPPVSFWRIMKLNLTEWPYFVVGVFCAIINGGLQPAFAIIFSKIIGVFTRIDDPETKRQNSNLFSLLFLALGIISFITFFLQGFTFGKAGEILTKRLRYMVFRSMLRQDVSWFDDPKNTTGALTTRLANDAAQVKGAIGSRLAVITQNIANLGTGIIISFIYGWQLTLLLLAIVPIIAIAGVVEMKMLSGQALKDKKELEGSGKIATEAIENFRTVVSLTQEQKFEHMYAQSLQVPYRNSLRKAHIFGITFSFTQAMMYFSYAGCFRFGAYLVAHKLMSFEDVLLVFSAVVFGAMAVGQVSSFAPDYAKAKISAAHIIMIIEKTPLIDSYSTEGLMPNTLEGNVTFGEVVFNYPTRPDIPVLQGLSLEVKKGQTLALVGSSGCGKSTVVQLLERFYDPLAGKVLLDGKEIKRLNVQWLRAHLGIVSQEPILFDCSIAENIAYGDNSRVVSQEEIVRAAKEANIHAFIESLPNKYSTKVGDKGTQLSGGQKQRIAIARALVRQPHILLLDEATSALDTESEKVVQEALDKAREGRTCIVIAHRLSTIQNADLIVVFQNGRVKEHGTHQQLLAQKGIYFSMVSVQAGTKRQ
Sequence of CYP2C9 (Homo sapiens, UniProt P11712) (P11712 whole entry): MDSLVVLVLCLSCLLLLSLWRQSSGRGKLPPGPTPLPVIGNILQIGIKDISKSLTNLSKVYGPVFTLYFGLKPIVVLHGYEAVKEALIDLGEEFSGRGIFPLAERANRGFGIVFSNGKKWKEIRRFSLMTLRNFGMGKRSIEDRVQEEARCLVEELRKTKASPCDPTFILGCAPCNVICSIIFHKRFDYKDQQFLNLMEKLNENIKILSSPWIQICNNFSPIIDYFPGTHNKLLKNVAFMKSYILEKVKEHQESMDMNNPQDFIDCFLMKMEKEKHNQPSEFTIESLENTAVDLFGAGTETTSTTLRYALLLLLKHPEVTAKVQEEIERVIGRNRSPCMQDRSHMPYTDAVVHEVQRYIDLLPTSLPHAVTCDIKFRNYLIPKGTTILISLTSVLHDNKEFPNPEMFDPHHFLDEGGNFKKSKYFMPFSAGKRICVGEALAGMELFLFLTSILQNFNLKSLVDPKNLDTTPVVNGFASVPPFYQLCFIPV
Sequence of CYP3A4 (P08684 whole entry): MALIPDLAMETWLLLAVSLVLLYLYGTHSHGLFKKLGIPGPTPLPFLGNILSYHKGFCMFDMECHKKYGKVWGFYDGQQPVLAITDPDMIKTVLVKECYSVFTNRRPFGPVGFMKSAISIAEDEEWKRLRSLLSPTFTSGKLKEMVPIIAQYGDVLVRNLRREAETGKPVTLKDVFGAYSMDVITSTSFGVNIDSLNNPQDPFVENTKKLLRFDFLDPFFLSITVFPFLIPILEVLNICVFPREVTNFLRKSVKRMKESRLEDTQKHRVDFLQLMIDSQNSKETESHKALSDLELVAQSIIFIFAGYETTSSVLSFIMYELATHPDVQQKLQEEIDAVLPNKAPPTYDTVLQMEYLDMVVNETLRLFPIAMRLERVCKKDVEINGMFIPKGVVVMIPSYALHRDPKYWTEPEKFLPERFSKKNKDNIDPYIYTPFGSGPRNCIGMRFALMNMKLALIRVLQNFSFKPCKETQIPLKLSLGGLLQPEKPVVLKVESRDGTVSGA
Sequence of MATE2K (Q86VL8 1-566 isoform Q86VL8-3, species assumed): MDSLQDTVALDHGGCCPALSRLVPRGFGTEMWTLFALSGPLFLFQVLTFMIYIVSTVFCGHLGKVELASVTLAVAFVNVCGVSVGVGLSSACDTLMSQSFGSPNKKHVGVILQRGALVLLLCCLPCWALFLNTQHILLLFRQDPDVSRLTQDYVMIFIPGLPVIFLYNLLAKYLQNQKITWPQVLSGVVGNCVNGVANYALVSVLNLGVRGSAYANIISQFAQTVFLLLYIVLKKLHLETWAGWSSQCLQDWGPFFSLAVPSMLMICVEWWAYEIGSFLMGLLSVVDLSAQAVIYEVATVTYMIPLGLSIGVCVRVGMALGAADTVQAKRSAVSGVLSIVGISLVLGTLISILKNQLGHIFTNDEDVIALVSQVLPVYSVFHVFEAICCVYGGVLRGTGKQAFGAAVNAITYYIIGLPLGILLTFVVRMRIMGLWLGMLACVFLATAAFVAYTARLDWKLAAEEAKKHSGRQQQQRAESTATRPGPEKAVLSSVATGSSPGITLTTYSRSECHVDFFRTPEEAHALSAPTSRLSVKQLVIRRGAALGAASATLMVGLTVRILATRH

In the case of Cc1ccc(C(=O)Nc2ccc(CN3CCN(C)CC3)c(C(F)(F)F)c2)cc1C#Cc1cnc2[nH]ncc2c1 [olverembatinib, Olverembatinib], the “Log Po:w” value [1] is listed as 3.6, the “antiproliferative activity compared with ponatinib” value [2] is listed as “equivalent or more potent antiproliferative activity” and the pKa ([3]; read-out: pKa 1) is listed as 2.9. The pKa ([3]; read-out: pKa 2) was 10.9, the “CYP2C9 induction, strength” value ([4]; hepatocytes) was “weak” and the EC50 ([4]; human) was 323 nM. The Ki [5] was 1140 nM, the “CYP2C9 inhibition, strength” value ([5]; microsomes) was “weak” and the Papp [6] was 0.08 ×10⁻⁶ cm/s. The “substrate or inhibitor of MATE2K” value [7] was “neither a substrate nor inhibitor”, the CL renal [8] was 2.2 mL/min and the “in vivo inhibition on P-gp” value [9] was “no obvious in vivo inhibition”. The “substrate of P-gp” value [9] was “is a substrate”, the fa [10, 15] was 0.574 (Fasting) and the ka [10, 15] was 0.213 (Fasting) 1/h. For the same compound, the fa [10, 16] was 0.8 (Fed), the ka [10, 16] was 0.136 (Fed) 1/h and the fraction unbound ([10]; human, microsomal incubation, assumed equal to fu,p, read-out: fu,mic/fu,inc) was 0.0005. For the same compound, the Kp ([10]; human, optimized based on observed data, read-out: Kp Scalar) was 6.01, the “ISEF CYP2C9” value ([10]; optimized based on fmCYP2C9) was 1.2938 and the “ISEF CYP3A4” value ([10]; optimized based on fmCYP3A4) was 0.7761. It also gave an SAC kin [10, 17] of 0.0471 h⁻¹, an SAC kout [10, 17] of 0.0177 h⁻¹ and a Vsac [10, 17] of 38.02 L/kg. The “in vivo inhibition on BCRP” value [11] was “no obvious in vivo inhibition”, the “substrate of BCRP” value [11] was “is a substrate” and the “major hematologic response (MaHR), patients” value ([12]; CML-AP, n = 37 without MaHR at baseline) was 78.4%. For the same compound, the “major cytogenetic response (MCyR), patients” value ([12]; CML-CP, n = 121 without MCyR at baseline) was 79.3%, the “CLint CYP3A4” value [13] was 0.2 µL/min/pmol CYP and the “substrate or inhibitor of OAT3” value [14] was “neither a substrate nor inhibitor”.

Reference: publication PMC9792776 (Frontiers in Pharmacology, 2022)
